From patent US20230248834A1, “DEGRADATION OF (EGFR) BY CONJUGATION OF EGFR INHIBITORS WITH E3 LIGASE LIGAND AND METHODS OF USE” (BEIGENE, LTD., priority 2020, published 2023)

Tests used:
EGFR L858R/C797S = molecular target: T1, EGFR L858R/C797S (Homo sapiens, UniProt P00533, C797S/L858R); experiment: EGFR degradation HTRF assay in BaF3 LC cells; format: cell-based; details: BaF3 LC (L858R/C797S), maximum percentage of inhibition (degradation); read-out: BaF3 LC Dmax (%)
T1 construct: expressed in transfected cells; host or cells: BaF3 LC
T1 sequence (P00533 25-1210 C797S/L858R): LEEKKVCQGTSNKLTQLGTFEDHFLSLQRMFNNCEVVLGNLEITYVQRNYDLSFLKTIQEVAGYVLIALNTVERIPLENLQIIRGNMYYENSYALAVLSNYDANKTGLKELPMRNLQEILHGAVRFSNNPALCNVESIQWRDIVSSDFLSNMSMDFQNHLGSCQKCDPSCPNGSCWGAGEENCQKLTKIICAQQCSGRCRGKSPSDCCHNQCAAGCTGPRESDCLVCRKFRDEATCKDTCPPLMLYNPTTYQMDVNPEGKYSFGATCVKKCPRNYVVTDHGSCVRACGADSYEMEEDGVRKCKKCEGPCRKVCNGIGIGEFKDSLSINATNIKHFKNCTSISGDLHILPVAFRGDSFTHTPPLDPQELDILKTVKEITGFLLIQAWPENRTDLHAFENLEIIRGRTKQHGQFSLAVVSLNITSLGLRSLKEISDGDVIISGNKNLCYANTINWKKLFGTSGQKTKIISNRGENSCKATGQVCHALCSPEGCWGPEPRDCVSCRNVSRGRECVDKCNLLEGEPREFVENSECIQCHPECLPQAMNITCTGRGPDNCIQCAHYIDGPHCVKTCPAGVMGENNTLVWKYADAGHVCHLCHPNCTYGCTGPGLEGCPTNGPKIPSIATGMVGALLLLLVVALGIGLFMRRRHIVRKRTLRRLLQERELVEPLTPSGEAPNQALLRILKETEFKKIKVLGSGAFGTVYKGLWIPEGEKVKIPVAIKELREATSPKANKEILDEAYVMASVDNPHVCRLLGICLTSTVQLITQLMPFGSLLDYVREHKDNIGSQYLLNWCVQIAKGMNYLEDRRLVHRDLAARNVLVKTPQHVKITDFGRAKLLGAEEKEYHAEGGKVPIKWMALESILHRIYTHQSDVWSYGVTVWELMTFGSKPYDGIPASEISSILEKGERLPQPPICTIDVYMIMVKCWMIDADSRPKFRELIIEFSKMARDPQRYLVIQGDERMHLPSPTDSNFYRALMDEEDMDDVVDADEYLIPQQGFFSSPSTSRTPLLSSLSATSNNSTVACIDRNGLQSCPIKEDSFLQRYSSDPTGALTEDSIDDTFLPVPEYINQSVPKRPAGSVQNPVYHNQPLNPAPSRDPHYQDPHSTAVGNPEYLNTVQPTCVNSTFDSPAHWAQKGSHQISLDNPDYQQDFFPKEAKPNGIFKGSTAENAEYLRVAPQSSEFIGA
Description: (§1) BaF3-LTC(L858R/T790M/C797S) cells and BaF3 LC(L858R/C797S) cells are treated with compounds diluted in 0.2% DMSO cell culture medium and incubate for 16 h, 37° C., 5% CO2. the final concentration of compounds in all assay is start with 10 uM, 5-fold dilution, total 8 doses were included.
(§2) After 16 h treatment, add HTRF lysis buffer to each well; seal the plate and incubate 1 hour at room temperature on a plate shaker; Once the cells are lysed, 16 μL of cell lysate are transferred to a PE 384-well HTRF detection plate; 4 μL of pre-mixed HTRF antibodies are added to each well; Cover the plate with a plate sealer, spin 1000 rpm for 1 min, Incubate overnight at room temperature; Read on BMG PheraStar with HTRF protocol (337 nm-665 nm-620 nm).
(§3) The inhibition (degradation) percentage of the compound was calculated by the following equation: Inhibition percentage of Compound=100−100×(Signal−low control)/(High control−low control), wherein signal=each test compound group
(§4) High control=Cell group with added DMSO and without compound, indicating microplate readings without EGFR degradation;
(§5) Dmax is the maximum percentage of inhibition (degradation).
(§6) The IC50 (DC50) value of a compound can be obtained by fitting the following equation
(§7) Y=Bottom+(TOP−Bottom)/(1+((IC50/X)^hillslope))
(§8) Wherein, X and Y are known values, and IC50, Hillslope, Top and Bottom are the parameters obtained by fitting with software. Y is the inhibition percentage (calculated from the equation), X is the concentration of the compound; IC50 is the concentration of the compound when the 50% inhibition is reached. The smaller the IC50 value is, the stronger the inhibitory ability of the compound is. Vice versa, the higher the IC50 value is, the weaker the inhibitory ability of the compound is; Hillslope represents the slope of the fitted curve, generally around 1*; Bottom represents the minimum value of the curve obtained by data fitting, which is generally 0%±20%; Top represents the maximum value of the curve obtained by data fitting, which is generally 100%±20%. The experimental data were fitted by calculating and analyzing with Dotmatics data analysis software.

EGFR L858R/T790M/C797S = molecular target: T2, EGFR L858R/T790M/C797S (Homo sapiens, UniProt P00533, C797S/L858R/T790M); experiment: EGFR degradation HTRF assay in BaF3-LTC cells; format: cell-based; details: BaF3-LTC (L858R/T790M/C797S), maximum percentage of inhibition (degradation); read-out: BaF3-LTC Dmax (%)
T2 construct: expressed in transfected cells; host or cells: BaF3-LTC
T2 sequence (P00533 25-1210 T790M/C797S/L858R): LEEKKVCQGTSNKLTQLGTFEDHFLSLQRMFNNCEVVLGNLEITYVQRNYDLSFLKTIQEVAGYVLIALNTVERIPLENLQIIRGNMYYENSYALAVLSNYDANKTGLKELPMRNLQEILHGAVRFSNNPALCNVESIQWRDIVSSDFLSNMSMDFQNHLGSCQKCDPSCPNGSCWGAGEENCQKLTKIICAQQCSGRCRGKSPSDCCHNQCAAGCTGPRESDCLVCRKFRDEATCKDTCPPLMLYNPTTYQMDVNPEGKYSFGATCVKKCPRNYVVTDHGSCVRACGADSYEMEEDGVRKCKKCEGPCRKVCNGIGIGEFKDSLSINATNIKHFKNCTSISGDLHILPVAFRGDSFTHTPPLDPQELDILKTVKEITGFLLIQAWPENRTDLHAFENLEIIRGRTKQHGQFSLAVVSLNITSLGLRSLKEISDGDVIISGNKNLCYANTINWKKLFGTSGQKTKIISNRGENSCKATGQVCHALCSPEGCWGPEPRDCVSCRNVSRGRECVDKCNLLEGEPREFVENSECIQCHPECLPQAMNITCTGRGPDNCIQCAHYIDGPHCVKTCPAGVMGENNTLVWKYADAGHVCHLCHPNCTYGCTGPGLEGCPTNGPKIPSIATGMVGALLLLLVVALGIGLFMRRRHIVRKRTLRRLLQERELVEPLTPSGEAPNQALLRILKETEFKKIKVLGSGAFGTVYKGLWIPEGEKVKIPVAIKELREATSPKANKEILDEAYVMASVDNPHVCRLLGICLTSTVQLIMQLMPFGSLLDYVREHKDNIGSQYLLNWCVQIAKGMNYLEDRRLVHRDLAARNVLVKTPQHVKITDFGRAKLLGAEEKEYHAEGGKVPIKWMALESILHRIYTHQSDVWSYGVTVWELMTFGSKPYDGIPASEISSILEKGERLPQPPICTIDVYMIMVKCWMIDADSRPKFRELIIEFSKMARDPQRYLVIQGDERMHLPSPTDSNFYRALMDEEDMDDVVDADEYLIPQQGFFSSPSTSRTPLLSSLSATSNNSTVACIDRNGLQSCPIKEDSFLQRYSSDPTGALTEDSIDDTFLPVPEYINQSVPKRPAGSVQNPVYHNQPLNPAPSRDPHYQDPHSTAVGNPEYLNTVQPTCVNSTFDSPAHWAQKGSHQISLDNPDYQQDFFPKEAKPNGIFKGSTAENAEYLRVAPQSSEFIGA
Description: as §1, §2, §3, §4, §5, §6, §7, §8

SMILES: CCOc1cc(N2CCC(N3CCN(CCc4cc(F)c([C@H]5CCC(=O)NC5=O)c(F)c4)CC3)CC2)c(CC)cc1Nc1ncc(Br)c(Nc2cc(F)c3nc(CC)ccc3c2P(C)(C)=O)n1 [Example 486, (R)-3-(4-(2-(4-(1-(4-((5-bromo-4-((5-(dimethylphosphoryl)-2-ethyl-8-fluoroquinolin-6-yl)amino)pyrimidin-2-yl)amino)-5-ethoxy-2-ethylphenyl)piperidin-4-yl)piperazin-1-yl)ethyl)-2,6-difluorophenyl)piperidine-2,6-dione]
- Dmax (EGFR L858R/C797S): 87.8%
- Dmax (EGFR L858R/T790M/C797S): 87.8%

SMILES: CCc1cc(Nc2ncc(Br)c(Nc3ccc4nc(C)ccc4c3P(C)(C)=O)n2)c(OC)cc1N1CCC(N2CCN(C(=O)[C@H]3CN(c4cc(F)c([C@H]5CCC(=O)NC5=O)c(F)c4)CC3(C)C)CC2)CC1 [Example 487, (R)-3-(4-((R)-4-(4-(1-(4-((5-bromo-4-((5-(dimethylphosphoryl)-2-methylquinolin-6-yl)amino)pyrimidin-2-yl)amino)-2-ethyl-5-methoxyphenyl)piperidin-4-yl)piperazine-1-carbonyl)-3,3-dimethylpyrrolidin-1-yl)-2,6-difluorophenyl)piperidine-2,6-dione]
- Dmax (EGFR L858R/C797S): 95.6%
- Dmax (EGFR L858R/T790M/C797S): 98%

SMILES: CCc1cc(Nc2ncc(Br)c(Nc3ccc4nc(C)c(F)cc4c3P(C)(C)=O)n2)c(OC)cc1N1CCC(N2CCN(C(=O)[C@@H]3CCN(c4cc(F)c([C@H]5CCC(=O)NC5=O)c(F)c4)C3)CC2)CC1 [Example 488, (R)-3-(4-((R)-3-(4-(1-(4-((5-bromo-4-((5-(dimethylphosphoryl)-3-fluoro-2-methylquinolin-6-yl)amino)pyrimidin-2-yl)amino)-2-ethyl-5-methoxyphenyl)piperidin-4-yl)piperazine-1-carbonyl)pyrrolidin-1-yl)-2,6-difluorophenyl)piperidine-2,6-dione]
- Dmax (EGFR L858R/C797S): 92.8%
- Dmax (EGFR L858R/T790M/C797S): 96.6%

SMILES: CCc1ccc2c(P(C)(C)=O)c(Nc3nc(Nc4cc(CC)c(N5CCC(N6CCN(C(=O)[C@@H]7CCN(c8cc(F)c([C@H]9CCC(=O)NC9=O)c(F)c8)C7)CC6)CC5)cc4OC)ncc3Br)ccc2n1 [Example 489, (R)-3-(4-((R)-3-(4-(1-(4-((5-bromo-4-((5-(dimethylphosphoryl)-2-ethylquinolin-6-yl)amino)pyrimidin-2-yl)amino)-2-ethyl-5-methoxyphenyl)piperidin-4-yl)piperazine-1-carbonyl)pyrrolidin-1-yl)-2,6-difluorophenyl)piperidine-2,6-dione]
- Dmax (EGFR L858R/C797S): 86.6%
- Dmax (EGFR L858R/T790M/C797S): 98.6%

SMILES: CCc1ccc2c(P(C)(C)=O)c(Nc3nc(Nc4cc(CC)c(N5CCC(N6CCN(CCc7ccc8c(c7)oc(=O)n8C7CCC(=O)NC7=O)CC6)CC5)cc4OC)ncc3Br)ccc2n1 (centres unmarked) [Example 491, 3-(6-(2-(4-(1-(4-((5-bromo-4-((5-(dimethylphosphoryl)-2-ethylquinolin-6-yl)amino)pyrimidin-2-yl)amino)-2-ethyl-5-methoxyphenyl)piperidin-4-yl)piperazin-1-yl)ethyl)-2-oxobenzo[d]oxazol-3(2H)-yl)piperidine-2,6-dione]
- Dmax (EGFR L858R/C797S): 94.7%
- Dmax (EGFR L858R/T790M/C797S): 92.7%

SMILES: CCOc1cc(N2CCC(N3CCN(CCc4cccc5c4oc(=O)n5C4CCC(=O)NC4=O)CC3)CC2)c(CC)cc1Nc1ncc(Br)c(Nc2cc(F)c3nc(CC)ccc3c2P(C)(C)=O)n1 (centres unmarked) [Example 493, 3-(7-(2-(4-(1-(4-((5-bromo-4-((5-(dimethylphosphoryl)-2-ethyl-8-fluoroquinolin-6-yl)amino)pyrimidin-2-yl)amino)-5-ethoxy-2-ethylphenyl)piperidin-4-yl)piperazin-1-yl)ethyl)-2-oxobenzo[d]oxazol-3(2H)-yl)piperidine-2,6-dione]
- Dmax (EGFR L858R/C797S): 87.1%
- Dmax (EGFR L858R/T790M/C797S): 95.2%

SMILES: CCOc1cc(N2CCC(N3CCN(CCc4cccc5c4C(C)(C)C(=O)N5C4CCC(=O)NC4=O)CC3)CC2)c(CC)cc1Nc1ncc(Br)c(Nc2ccc3c(=O)n(CC)ncc3c2P(C)(C)=O)n1 (centres unmarked) [Example 501, 3-(4-(2-(4-(1-(4-((5-bromo-4-((5-(dimethylphosphoryl)-2-ethyl-1-oxo-1,2-dihydrophthalazin-6-yl)amino)pyrimidin-2-yl)amino)-5-ethoxy-2-ethylphenyl)piperidin-4-yl)piperazin-1-yl)ethyl)-3,3-dimethyl-2-oxoindolin-1-yl)piperidine-2,6-dione]
- Dmax (EGFR L858R/C797S): 93.5%
- Dmax (EGFR L858R/T790M/C797S): 83.5%

SMILES: CCOc1cc(N2CCC(N3CCN(CCc4cc(F)c([C@H]5CCC(=O)NC5=O)c(F)c4)CC3)CC2)c(CC)cc1Nc1ncc(Br)c(Nc2ccc3c(=O)n(C)ncc3c2P(C)(C)=O)n1 [Example 502, (R)-3-(4-(2-(4-(1-(4-((5-bromo-4-((5-(dimethylphosphoryl)-2-methyl-1-oxo-1,2-dihydrophthalazin-6-yl)amino)pyrimidin-2-yl)amino)-5-ethoxy-2-ethylphenyl)piperidin-4-yl)piperazin-1-yl)ethyl)-2,6-difluorophenyl)piperidine-2,6-dione]
- Dmax (EGFR L858R/C797S): 87.6%
- Dmax (EGFR L858R/T790M/C797S): 96.7%

SMILES: CCOc1cc(N2CCC(N3CCN(CCc4c(F)ccc5c4n(C)c(=O)n5C4CCC(=O)NC4=O)CC3)CC2)c(CC)cc1Nc1ncc(Br)c(Nc2ccc3nc(CC)ccc3c2P(C)(C)=O)n1 (centres unmarked) [Example 503, 3-(4-(2-(4-(1-(4-((5-bromo-4-((5-(dimethylphosphoryl)-2-ethylquinolin-6-yl)amino)pyrimidin-2-yl)amino)-5-ethoxy-2-ethylphenyl)piperidin-4-yl)piperazin-1-yl)ethyl)-5-fluoro-3-methyl-2-oxo-2,3-dihydro-1H-benzo[d]imidazol-1-yl)piperidine-2,6-dione]
- Dmax (EGFR L858R/C797S): 88.9%
- Dmax (EGFR L858R/T790M/C797S): 90.2%

SMILES: CCOc1cc(N2CCC(N3CCN(CCc4cccc5c4n(CC)c(=O)n5C4CCC(=O)NC4=O)CC3)CC2)c(CC)cc1Nc1ncc(Br)c(Nc2ccc3nc(CC)ccc3c2P(C)(C)=O)n1 (centres unmarked) [Example 504, 3-(4-(2-(4-(1-(4-((5-bromo-4-((5-(dimethylphosphoryl)-2-ethylquinolin-6-yl)amino)pyrimidin-2-yl)amino)-5-ethoxy-2-ethylphenyl)piperidin-4-yl)piperazin-1-yl)ethyl)-3-ethyl-2-oxo-2,3-dihydro-1H-benzo[d]imidazol-1-yl)piperidine-2,6-dione]
- Dmax (EGFR L858R/C797S): 86%
- Dmax (EGFR L858R/T790M/C797S): 89%

SMILES: CCOc1cc(N2CCC(N3CCN(CCc4ccc(F)c5c4oc(=O)n5C4CCC(=O)NC4=O)CC3)CC2)c(CC)cc1Nc1ncc(Br)c(Nc2ccc3nc(CC)ccc3c2P(C)(C)=O)n1 (centres unmarked) [Example 505, 3-(7-(2-(4-(1-(4-((5-bromo-4-((5-(dimethylphosphoryl)-2-ethylquinolin-6-yl)amino)pyrimidin-2-yl)amino)-5-ethoxy-2-ethylphenyl)piperidin-4-yl)piperazin-1-yl)ethyl)-4-fluoro-2-oxobenzo[d]oxazol-3(2H)-yl)piperidine-2,6-dione]
- Dmax (EGFR L858R/C797S): 83.2%
- Dmax (EGFR L858R/T790M/C797S): 75.1%

SMILES: CCc1ncc2c(P(C)(C)=O)c(Nc3nc(Nc4cc(CC)c(N5CCC(N6CCN(C(=O)[C@@H]7CCN(c8cc(F)c([C@H]9CCC(=O)NC9=O)c(F)c8)C7)CC6)CC5)cc4OC)ncc3Br)ccc2n1 [Example 549, (R)-3-(4-((R)-3-(4-(1-(4-((5-bromo-4-((5-(dimethylphosphoryl)-2-ethylquinazolin-6-yl)amino)pyrimidin-2-yl)amino)-2-ethyl-5-methoxyphenyl)piperidin-4-yl)piperazine-1-carbonyl)pyrrolidin-1-yl)-2,6-difluorophenyl)piperidine-2,6-dione]
- Dmax (EGFR L858R/C797S): 87.2%
- Dmax (EGFR L858R/T790M/C797S): 90.4%

SMILES: CCOc1cc(N2CCC(N3CCN(CC4CN(c5cc(F)c([C@H]6CCC(=O)NC6=O)c(F)c5)C4)CC3)CC2)c(CC)cc1Nc1ncc(Br)c(Nc2ccc3c(=O)n(CC)ncc3c2P(C)(C)=O)n1 [Example 551, (R)-3-(4-(3-((4-(1-(4-((5-bromo-4-((5-(dimethylphosphoryl)-2-ethyl-1-oxo-1,2-dihydrophthalazin-6-yl)amino)pyrimidin-2-yl)amino)-5-ethoxy-2-ethylphenyl)piperidin-4-yl)piperazin-1-yl)methyl)azetidin-1-yl)-2,6-difluorophenyl)piperidine-2,6-dione]
- Dmax (EGFR L858R/C797S): 86.8%
- Dmax (EGFR L858R/T790M/C797S): 89.7%
